{"source": "patent US20160010155A1", "about": "“KCNK3 Channel Loss-of-Function Mutants in Familial and Idiopathic Pulmonary Arterial Hypertension” (THE TRUSTEES OF COLUMBIA UNIVERSITY IN THE CITY OF NEW YORK, priority 2013, published 2016)", "key": {"[1]": {"target": "TASK-1 (Homo sapiens, UniProt O14649)", "sequence (O14649 whole entry)": "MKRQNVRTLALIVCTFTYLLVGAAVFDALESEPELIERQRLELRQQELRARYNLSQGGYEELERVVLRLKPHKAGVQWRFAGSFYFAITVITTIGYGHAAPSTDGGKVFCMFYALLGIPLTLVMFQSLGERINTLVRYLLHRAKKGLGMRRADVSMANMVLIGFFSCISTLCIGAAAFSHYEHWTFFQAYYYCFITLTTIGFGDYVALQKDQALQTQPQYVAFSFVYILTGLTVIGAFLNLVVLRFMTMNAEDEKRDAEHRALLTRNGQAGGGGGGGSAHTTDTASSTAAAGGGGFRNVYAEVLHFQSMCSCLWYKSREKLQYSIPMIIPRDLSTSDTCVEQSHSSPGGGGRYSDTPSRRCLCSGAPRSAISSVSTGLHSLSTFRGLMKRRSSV", "settings": "cited from earlier work"}, "[2]": {"settings": "cited from earlier work"}, "[3]": {"target": "T1, WT hKCNK3 channel (Homo sapiens, UniProt O14649)", "T1 construct": "expressed in transfected cells; host or cells: COS-7", "T1 sequence (O14649 whole entry)": "as above", "assay": "Whole-cell patch clamp of WT hKCNK3 channels expressed in COS-7 cells, drug application", "assay_type": "cell-based", "settings": "10 μM, current at +60 mV, pH 7.4", "description": "Functional analysis of the KCNK3 channel was performed to evaluate the functional effects of the rare genetic variants identified and to provide insight into the disease mechanism. pIRES-CD8-hKCNK3 was kindly provided by Florian Lesage (Institut de Pharmacologie Moléculaire et Cellulaire, Centre National de la Recherche Scientifique and Université de Nice Sophia Antipolis, Valbonne, France). hKCNK3 DNA was amplified and inserted into pcDNA 3.1 (+) vector (Invitrogen). Site-directed mutagenesis was performed using the QuikChange kit (Stratagene) and all constructs were sequenced before use. COS-7 cells (American Type Culture Collection) were grown under conventional conditions (5% CO2, DMEM (Gibco) +GlutaMax medium (Gibco) and 10% fetal bovine serum (Gibco)). […] The topology of the KCNK3 channel was based on the crystal structure of TWIK-1 channel^43 and alignment was performed using GeneDoc.^44 Membrane currents were measured with whole-cell patch-clamp procedures using Axopatch 200B amplifiers (Axon Instruments). […] Current measured at +60 mV was selected for comparison of constructs and drug actions. […] Analyzed data are shown as mean+/−S.E.M. Statistical significance was determined using one-way ANOVA. p<0.05 was considered statistically significant. […]"}}}
{"smiles": "FC(F)OC(Cl)C(F)(F)F", "note": "(stereo not drawn) [Isoflurane, 2-chloro-2-(difluoromethoxy)-1,1,1-trifluoro-ethane]", "values": [{"measurement": "effect on TASK-1 channel", "setting": "[1]", "value": "activated"}]}
{"smiles": "CCCCC[C@H](O)CC[C@@H]1[C@H]2Cc3cccc(OCC(=O)O)c3C[C@H]2C[C@H]1O", "note": "[Treprostinil]", "values": [{"measurement": "dose linearity of pharmacokinetics", "setting": "[2]; continuous subcutaneous, dose range 1.25 to 125 ng/kg/min, two-compartment model", "value": "linear"}, {"measurement": "excreted in feces", "setting": "[2]; in vivo", "value": 13, "unit": "%"}, {"measurement": "excreted in the urine as identified metabolites", "setting": "[2]; in vivo", "value": 64, "unit": "%"}, {"measurement": "excreted in the urine as unchanged drug", "setting": "[2]; in vivo", "value": 4, "unit": "%"}, {"measurement": "half life", "setting": "[2]; in vivo", "value": 4, "unit": "h"}, {"measurement": "metabolism", "setting": "[2]; in vivo", "value": "substantially metabolized by the liver"}]}
{"smiles": "FC(F)(F)C(Cl)Br", "note": "(stereo not drawn) [Halothane, 2-bromo-2-chloro-1,1,1-trifluoroethane]", "values": [{"measurement": "effect on TASK-1 channel", "setting": "[1]", "value": "activated"}]}
{"smiles": "CCCCCc1ccc(/C=C/C(=O)Nc2cc(Cl)ccc2C(=O)O)cc1", "note": "[ONO RS-082]", "values": [{"measurement": "WT hKCNK3 current after application of drug", "setting": "[3]", "value": "robust increase"}]}
